For data set [1], the target named is rBIIA isoform of Na+ channels (Rattus norvegicus, UniProt P04775). As to the kind of experiment: Electrophysiological Assay 1: patch-clamp of voltage-sensitive Na+ currents in HEK-293 cells. The format is cell-based. As to conditions: HEK-293 cells stably expressing rBIIA; for Ki: apparent antagonist dissociation constant for inactivated sodium channels. On the procedure:
Cell preparation: HEK-293 (NaIIA-B2) cell line stably expressing the rBIIA isoform of Na^+ channels was established in-house. The cells were cultured using standard techniques, as described previously (Verdoom, T. A, et al., Neuron 4:919-928 (1990)). For electrophysiology, cells were plated onto poly-D-lysine pre-coated Cellware 35 mm Petri dishes (BIOCOAT, Becton Dickinson) at a density of ˜10^4 cells/dish on the day of re-seeding from confluent cultures. Our experience has been that cells are suitable for recordings for 2-3 days after plating.
Patch-clamp recordings of voltage-sensitive Na^+ currents: Whole-cell voltage-clamp recordings were made using conventional patch-clamp techniques (Hamill et al., Pfluegers Arch. 391:85-100 (1981)) with an Axopatch 200A amplifier (Axon Instruments, Foster City, Calif.). The recording chamber was continuously superfused with the external solution (150 mM NaCl, 5.4 mM KCl, 1.8 mM CaCl2, 1 mM MgCl2, 10 mM HEPES, 10 mM glucose, pH 7.4 adjusted with NaOH, osmolality ˜320 mmol/kg) at a speed of about 1 mL/min. Recording pipettes were pulled from the thick-walled capillaries (WPI, Sarasota, Fla.) and fire-polished. The pipette resistances ranged from 1 to 3 MΩ when the pipettes were filled with internal solution containing (in mM): 130 CsF, 20 NaCl, 2 MgCl2, 10 EGTA, 10 HEPES, pH adjusted to 7.4 with CsOH, osmolality ˜310 mmol/kg. Drugs and intervening wash-outs were applied through a linear array of flow pipes (Drummond Microcaps, 2 μL, 64-mm length). Compounds are dissolved in dimethylsulfoxide (DMSO) to make a 30 mM stock solution, which was subsequently diluted into the external solution to give final concentrations of 0.1-100 μM. At the highest (1%) concentration, DMSO inhibited the size of Na^+ current only slightly. Currents were recorded at room temperature (22-25° C.), filtered at 3 kHz with an active 8-pole Bessel filter (Frequency Devices, Haverhill, Mass.), digitized at 10-50 μs intervals, and stored using Digidata 1200 analog/digital interface with Pclamp6/Clampex software (Axon Instruments). Series resistance was cancelled typically by ˜75% when necessary.
The following voltage pulse protocols A, B, C, and D were used to assess the potency and kinetics of inhibition of the Na^+ channels by the compounds (FIGS. 1A-1D).
Current-voltage relationship (IV-curve), protocol A (FIG. 1A), was used to report the voltage at which the maximal inward Na^+ current is achieved. This voltage was used throughout the experiment as testing voltage, Vt. The steady-state inactivation (or, availability) curve, protocol C (FIG. 1C), was used to get the voltage at which almost complete (≧95%) inactivation of Na^+ channels occurs; it served as voltage for conditioning prepulse, Vc, throughout the experiment. Protocol B (FIG. 1B) reports how fast the channels recover from inactivation at hyperpolarized voltages. This permitted us to set up the duration of the hyperpolarization gap which is used in measurement of the kinetics of binding of compounds to inactivated Na^+ channels (protocol D (FIG. 1D)). Channel repriming under control conditions was fast (≧90% recovery during first 5-10 ms). If a drug substantially retards the repriming process then it becomes possible (protocol D) to accurately measure the kinetics of binding of the inhibitor to inactivated channels as well as the steady-state affinity (k+ and Ki). To estimate k+ values the reduction in peak currents in successive trials with varying pre-pulse duration was plotted as a function of pre-pulse duration and the time constant (τ) measured by mono-exponential fit. A plot of 1/τ as a function of antagonist concentration then allowed calculating of the macroscopic binding rates of the antagonists. […]

For data set [2], the system named is maximal electroshock-induced seizures (MES). The data set is described as follows: Maximum electroshock seizure test (MES), anticonvulsant evaluation. As to conditions: Mus musculus, mice. It is filed as in vivo. From the text: The compounds of the present invention may be tested for in vivo anticonvulsant activity after i.v., p.o. or i.p. injection using a number of anticonvulsant tests in mice, including the maximum electroshock seizure test (MES). Maximum electroshock seizures were induced in male NSA mice weighing between 15-20 g and male Sprague-Dawley rats weighing between 200-225 g by application of current (50 mA, 60 pulses/sec, 0.8 msec pulse width, 1 sec duration, D.C., mice; 99 mA, 125 pulses/sec, 0.8 msec pulse width, 2 sec duration, D.C., rats) using a Ugo Basile ECT device (Model 7801). Mice were restrained by gripping the loose skin on their dorsal surface and saline-coated corneal electrodes were held lightly against the two corneae. Rats were allowed free movement on the bench top and ear-clip electrodes were used. […] A tonic seizure was defined as a hindlimb extension in excess of 90 degrees from the plane of the body. Results were treated in a quantal manner.
The ability of 4-[4-(4-fluorophenoxy)phenyl]-pyrimidine-2-carboxamide to block maximal electroshock-induced seizures (MES) was determined according to the method above.
4-[4-(4-Fluorophenoxy)phenyl]-pyrimidine-2-carboxamide was administered p.o. to mice 30 minutes before the test procedure.
The following compounds on Table 1 were tested accordingly after a p.o. administration and also after an i.v. injection. The compounds were injected i.v. 15 minutes before the test procedure.

Data set [3] concerns Chung model of neuropathic pain (tactile allodynia). As to the kind of experiment: Chung model of neuropathic pain, tactile antiallodynia effect. The format is in vivo. The note with it: rats, p.o. From the text:
The compounds may be tested for their potential for the treatment of chronic pain (antiallodynic and antihyperalgesic activities) in the Chung model of peripheral neuropathy. Male Sprague-Dawley rats weighing between 200-225 g were anesthetized with halothane (1-3% in a mixture of 70% air and 30% oxygen) and their body temperature controlled during anesthesia through use of a homeothermic blanket. A 2-cm dorsal midline incision was then made at the L5 and L6 level and the para-vertibral muscle groups retracted bilaterally. L5 and L6 spinal nerves were then be exposed, isolated, and tightly ligated with 6-0 silk suture. A sham operation was performed exposing the contralateral L5 and L6 spinal nerves as a negative control.
Tactile Allodynia: Rats were transferred to an elevated testing cage with a wire mesh floor and allowed to acclimate for five to ten minutes. A series of Semmes-Weinstein monofilaments were applied to the plantar surface of the hindpaw to determine the animal's withdrawal threshold. […] This procedure was repeated with subsequent lesser filaments until there was no response and the lightest filament that elicited a response was recorded. […] For each animal, three measurements were made at every time point to produce an average withdrawal threshold determination. Tests were performed prior to and at 1, 2, 4 and 24 hours post drug administration. Tactile allodynia and mechanical hyperalgesia tests were conducted concurrently.
The tactile antiallodynia effect of the compounds listed in Table 4 was tested in the Chung model of neuropathic pain in rats as described above and described by Kim and Chung (Pain 50:355-363 (1992)). […]

Setting [4] is: iv, i.v. injection 15 minutes before the test, read-out: MES i.v. ED50.
The mark [5] stands for this setting: po, p.o., 30 minutes before the test, ED50 = dose protecting 50% of animals, read-out: MES p.o. ED50.

This is an account of results in patent publication US6867210B2, “Aryl substituted pyrimidines” (Euro-Celtique S.A., priority 2000, dated 2005).

Read-outs that look alike come from different tables or passages of the source.

`NC(=O)c1ccnc(-c2ccc(Oc3ccc(Cl)cc3F)cc2)n1` [2-[4-(4-Chloro-2-fluorophenoxy)phenyl]pyrimidine-4-carboxamide]: the Ki in data set [1] is 220 nM. Also, the ED50 in data set [2] (setting [4]) is 2.3 mg/kg; in data set [2] (setting [5]), 5.7 mg/kg. Further, in data set [3], the “MED (minimal effective dose)” value stood at 1.25 Mg/kg.
For `NC(=O)c1ccnc(-c2ccc(Oc3ccc(F)cc3)cc2)n1` [2-[4-(4-Fluorophenoxy)phenyl]pyrimidine-4-carboxamide], in that order: 100 nM, 2.5 mg/kg, 7.5 mg/kg and 2.50 Mg/kg.
For the molecule `Fc1ccc(Oc2ccc(-c3nccc(-c4nc[nH]n4)n3)cc2)cc1` [2-[4-(4-fluorophenoxy)phenyl]-4-[3-(1,2,4-triazolyl)]pyrimidine], in data set [1], the Ki is 20000 nM.
Turning to `NC(=O)c1nc(-c2ccc(Oc3ccccc3)cc2)c(N)nc1N` [3,5-Diamino-6-(4-phenoxyphenyl)pyrazine-2-carboxamide], in data set [1], the Ki turned out to be 2200 nM.
As to `NC(=O)c1nccc(-c2ccc(Oc3ccc(F)cc3F)cc2)n1` [4-[4-(2,4-Difluorophenoxy)phenyl]-pyrimidine-2-carboxamide], in data set [1], the Ki is 360 nM. Further, the figures for the ED50 in data set [2] (setting [4]) and in data set [2] (setting [5]) were 0.9 mg/kg and 1.4 mg/kg, respectively.
`NC(=O)c1nccc(-c2ccc(Oc3ccc(F)cc3)cc2)n1` [4-[4-(4-Fluorophenoxy)phenyl]-pyrimidine-2-carboxamide]: the “inhibition of voltage-gated sodium currents” value in data set [1] is recorded as “dose-dependent inhibition”. The Ki in data set [1] stood at 490 nM. Moreover, the ED50 in data set [2] (setting [4]) is 0.7 mg/kg; in data set [2] (setting [5]) it was 1.6 mg/kg.
`CN(C)C(=O)c1nccc(-c2ccc(Oc3ccc(F)cc3)cc2)n1` [4-[4-(4-Fluorophenoxy)phenyl]-pyrimidine-2-carboxylic acid dimethylamide]: the Ki in data set [1] was determined as 13500 nM.
Regarding `CC(C)(C)NC(=O)c1nccc(-c2ccc(Oc3ccc(F)cc3)cc2)n1` [4-[4-(4-Fluorophenoxy)phenyl]-pyrimidine-2-carboxylic acid tert-butylamide], in data set [1], the Ki came to 180 nM.
For `O=C(O)c1nccc(-c2ccc(Oc3ccc(F)cc3)cc2)n1` [4-[4-(4-Fluorophenoxy)phenyl]-pyrimidine-2-carboxylic acid], in data set [1], the Ki worked out at 51000 nM.
Consider `NC(=O)c1nccc(-c2ccc(Oc3ccc(C(F)(F)F)cc3)cc2)n1` [4-[4-(4-Trifluoromethylphenoxy)phenyl]-pyrimidine-2-carboxamide], for which the Ki in data set [1] is 210 nM. Besides, the ED50 came to 0.5 mg/kg in data set [2] (setting [4]) and 2.5 mg/kg in data set [2] (setting [5]).
Consider `NC(=O)c1cccc(-c2ccc(Oc3ccccc3)cc2)n1` [6-(4-Phenoxyphenyl)pyridine-2-carboxamide], for which the melting point was in the range of 178 to 180 °C. For the same molecule, the ED50 in data set [2] (setting [4]) was 3.2 mg/kg. Also, the ED50 in data set [2] (setting [5]) came to 10.5 mg/kg.
Take `NC(=O)c1cccc(-c2ccc(Oc3ccc(F)cc3)cc2)n1` [6-[4-(4-Fluorophenoxy)phenyl]pyridine-2-carboxamide]: the Ki in data set [1] worked out at 70 nM. Further, the results for the ED50 in data set [2] (setting [4]) and in data set [2] (setting [5]) were 1.2 mg/kg and 3.3 mg/kg, respectively. Further, in data set [3], the “MED (minimal effective dose)” value is recorded as 2.50 Mg/kg.
